According to publication PMC4569415, “Pro-Oxidant Activity of Amine-Pyridine-Based Iron Complexes Efficiently Kills Cancer and Cancer Stem-Like Cells” (PLoS ONE, 2015):
Values joined by “and” are separate entries in the source; they are usually repeats but may differ in a detail not shown here. Identical values can stand only once.

Assays:
[1] = tested on: caspase 3/7; experiment: Caspase-Glo 3/7 luminometric assay; assay type: cell-based; details: 10 μmol/L, 48 h, panel of human cancer cell lines
Procedure: Enzymatic caspase activity was determined after exposing the cells to compound 1, 2 and 5 at 10 μmol/L for 48 h. Caspase 3/7 activity was measured with the luminometric Caspase-Glo 3/7assay (Promega, Madison, WI, USA) using a Synergy HT multi-detection microplate reader (Bio-Tek).

[2] = tested on: MCF-7 and CAPAN-1 cells; experiment: MTT cell viability with modulators (QVD-Oph, FeCl2); assay type: cell-based, human; details: 48 h; for effect of FeCl2 co-incubation on cytotoxicity of the ligand: FeCl2 100 μmol/L co-incubation, 2 at 5 μmol/L, 1 and 5 at 10 μmol/L
Procedure: (§1) The cytotoxic activity of the compounds was determined by MTT reduction assay as described. Compounds were diluted in Milli-Q water to obtain 1 mmol/L stock solutions. Appropriate aliquots of these solutions were diluted in the corresponding cell culture medium to obtain the final working concentrations. Aliquots of 5000 1BR3G cells, 6000 MCF-7, 6000 PC-3 cells, 10 000 CAPAN-1 cells, 4000 MCF 10A cells, 4000 HMLE cells or 4000 CCD-18Co cells were seeded in 96-well plates, 24 h prior to the treatments. Hematological cell lines were seeded at 400 000 cells/mL. Cells were treated with the corresponding compound at concentrations ranging from 0 to 100 μmol/L for 48 h. Three replicates for each compound were used. The IC50 was established for each compound by standard non-linear regression and curve fitting using GraphPad Prism (Graph Pad software Inc., La Jolla, CA, USA).
Fig 4 Induction of caspase activity. (A) The indicated cell lines were treated for 48 h with compounds 1, 2 and 5 (10 μmol/L) and caspase 3/7 activity was measured as indicated in Materials and Methods. Bar charts show the fold increase in caspase activity relative to untreated (control) and represent the mean±SD from three independent experiments performed in triplicate. (B) MCF-7 and CAPAN-1 cells were treated for 48 h with the ligands (10 μM) in the absence (-) or presence (+) of the pan-caspase inhibitor QVD-Oph (20 μM) and cell viability was measured with the MTT assay. […] Data represents the mean ± SD of 3 independent experiments performed in triplicate. The differences between absence and presence of QVD-OPh treatment were statistically significant at * p<0.05, **p<0.01 and ***p<0.001.
Fig 9 Effects of iron on 1, 2 and 5 activity. (A) Effect of 2 h FeCl2 pre-incubation (FeCl2 p) (dotted line) or co-incubation (FeCl2 c) (dashed line) at 1, 10 or 100 μmol/L on the cytotoxicity of 2 (5 μmol/L) in MCF-7 and CAPAN-1 cells. FeCl2 alone was included as a control (solid line). Cell viability was determined after 48 h of treatment by the MTT assay. (B) Effect of FeCl2 pre-incubation or co-incubation (100 μmol/L) on the cytotoxicity of 2 (5 μmol/L), 1 and 5 (10 μmol/L). Cells treated with the ligands alone were included as a reference (control). (C) ROS induction in CAPAN-1 cells after 24 h treatment with 2 (10 μmol/L) alone, together with FeCl2 or after FeCl2 pre-incubation (at 100 μmol/L). Results are presented as a percentage of untreated cells and represent mean±SD of 3 independent experiments. *p < 0.05 versus control cells.

[3] = tested on: MCF-7 cells; experiment: Colony formation (clonogenic) assay; assay type: cell-based, human; details: 10 μmol/L
Procedure: MCF-7 cells were seeded in 12-well plates. […] Subsequently, cells were washed with PBS, collected with trypsin and plated at low density (3000 cells in a […]). Cells were allowed to divide and form colonies for 7–10 days; after which, colonies were fixed and stained with 2% methylene blue in 50% ethanol. The number of colonies in each plate was determined using the Alpha Innotech Imaging system (Alpha Innotech, San Leandro, CA).

[4] = tested on: human leukemia, lymphoma and glioma cancer cells; experiment: MTT cell viability at 10 μmol/L, cell line panel; assay type: cell-based; details: 48 h
Procedure: as §1
Fig 2 Cell viability assay. (A) Cytotoxic activity of compounds 1, 2, and 5 against cancer cells. The indicated cell lines were treated for 48 h with ligands (10 μmol/L) and cell viability was measured with the MTT assay. Data represents the percentage of viable cells relative to untreated cells (control). (B) Cytotoxicity of doxorubicin and compounds 1, 2 and 5 against CS-like cells. CS-like HMLER-shEcad cells and non-CS-like HMLER isogenic parental cells were treated for 48 h with graded concentrations of doxorubicin, 1, 2 and 5. Cell viability was measured with the MTT assay. For each treatment, the percentage of viable cells relative to untreated cells is indicated. Data represents the mean±SD of 3 independent experiments performed in triplicate.

[5] = tested on: supercoiled pUC18 plasmid DNA; experiment: DNA cleavage by agarose gel electrophoresis; assay type: biochemical; details: 25 μM, 1 h, 37°C
Procedure: DNA cleavage was monitored by agarose gel electrophoresis. A stock solution of pUC18 DNA was freshly prepared in Milli-Q water at a concentration of […] (1512 μmol/L nucleotides; 756 μmol/L bp). Reactions were performed by mixing 0.5 μl of pUC18 with appropriate aliquots of the compounds and 1 μL of activating agent solution (35% wt/vol H2O2 in H2O). Cacodylate buffer (0.1 M, pH 6.0) was added to the mixture to give a final volume of 20 μl. The final concentration of pUC18 DNA was 37.8 μmol/L in nucleotides (18.9 μmol/L bp). Samples were incubated for 1 h at 37°C; reactions were quenched by adding 6 μL of a buffer solution consisting of bromophenol blue (0.25%), xylene cyanol (0.25%), and glycerol (30%). Subsequently, the samples were subjected to electrophoresis in 0.8% agarose gels in 0.5×TBE buffer (0.045 mol/L Tris, 0.045 mol/L boric acid, and 1 mmol/L EDTA) at 100 V for 1 h and 40 min. Gels were stained with ethidium bromide (10 mg/mL in TBE) for 15 min and visualized under UV transillumination. DNA bands were captured using the ProgRes CapturePro 2.7 system and the intensity of each band was quantified with the GelQuant version 2.7 software (DNR Bio-Imaging Systems, Jerusalem, Israel) using a correction factor of 1.31 to compensate for the reduced ethidium bromide uptake of supercoiled plasmid pUC18 DNA [47]. The proportion of different forms of plasmid DNA was established for each treatment. To test the involvement of ROS in strand scission and possible complex–DNA interaction sites, various ROS scavengers and groove binders were added to the reaction mixtures. The scavengers used were Tiron (10 mmol/L), sodium azide (0.4 mol/L), and dimethyl sulfoxide (DMSO, 3 μL). The groove binders used were methyl green (20 mmol/L) and Hoechst (40 μmol/L).

| SMILES | caspase 3/7 activation [1] | effect of FeCl2 co-incubation on cytotoxicity of the ligand [2] | reduction of colony number vs control ([3]; 3 h exposure) | reduction of colony number vs control ([3]; 5 h exposure) | reduction of colony number vs control ([3]; 12 h exposure) | reduction of colony number vs control ([3]; 24 h exposure) | antiproliferative activity at 10 μmol/L [4] | Proportion of plasmid DNA Form I (supercoiled) ([5]; + H2O2) | Proportion of plasmid DNA Form II (open) ([5]; + H2O2) | Proportion of plasmid DNA Form I (supercoiled) ([5]; absence of H2O2) | Proportion of plasmid DNA Form II (open) ([5]; absence of H2O2) | increase in cell viability by pan-caspase inhibitor QVD-Oph ([2]; ligand 10 μM, QVD-Oph 20 μM) |
| --- | --- | --- | --- | --- | --- | --- | --- | --- | --- | --- | --- | --- |
| c1ccc(CN2CCC[C@H]2[C@@H]2CCCN2Cc2ccccn2)nc1 [Compound 1] | significant caspase 3/7 activation in lymphoma (Z-138, Jeko-1, Granta and SP-53) but not in leukemia (JURKAT) or glioma (LN229 and U87MG) cell lines | inhibited the cytotoxicity of the ligand in CAPAN-1, but not in MCF-7 cells | 0% | 18.7% | 40.5% | 57% and 56.6% | high antiproliferative activity | 52.8% | 47.2% | 84.3% | 15.7% | – |
| CN(C)c1ccnc(CN2CCC[C@H]2[C@@H]2CCCN2Cc2cc(N(C)C)ccn2)c1 [Compound 2] | clearly increased caspase 3/7 activity in all cell lines | clearly inhibited | 39% | – | – | almost abolished | high antiproliferative activity | 56.8% | 43.2% | 91.3% | 8.7% | lack of reversion |
| CN1CCN(Cc2ccccn2)CCN(Cc2ccccn2)CC1 [Compound 5] | activating caspase 3/7 in most cell lines except PC-3 cells | Neither pretreatment nor co-incubation with FeCl2 affected | – | – | – | 53% | high antiproliferative activity | 53.3% | 46.7% | 92.3% | 7.7% | – |
